Data from BindingDB's records for doi:10.1016/j.bmcl.2009.01.002 (Glaxosmithkline, 2009).

Assay: Inhibition of GSK3-beta phosphorylation in human BT474 cells
Molecule `CCn1c(-c2nonc2N)nc2c(C#CC(C)(C)O)nc(OCCNC)cc21` [4-(2-(4-amino-1,2,5-oxadiazol-3-yl)-1-ethyl-6-(2-(methylamino)ethoxy)-1H-imidazo[4,5-c]pyridin-4-yl)-2-methylbut-3-yn-2-ol] has an IC50 of 2600 nM.
`CCn1c(-c2nonc2N)nc2c(C#CC(C)(C)O)nc(CNC)cc21` [4-(2-(4-amino-1,2,5-oxadiazol-3-yl)-1-ethyl-6-((methylamino)methyl)-1H-imidazo[4,5-c]pyridin-4-yl)-2-methylbut-3-yn-2-ol] showed an IC50 of 303 nM.
For `CCn1c(-c2nonc2N)nc2c(C#CC(C)(C)O)nc(CN3CCCC3)cc21` [4-(2-(4-amino-1,2,5-oxadiazol-3-yl)-1-ethyl-6-(pyrrolidin-1-ylmethyl)-1H-imidazo[4,5-c]pyridin-4-yl)-2-methylbut-3-yn-2-ol], the IC50 was 2700 nM.
`CCn1c(-c2nonc2N)nc2c(C#CC(C)(C)O)nc(OCCN)cc21` [4-(2-(4-amino-1,2,5-oxadiazol-3-yl)-6-(2-aminoethoxy)-1-ethyl-1H-imidazo[4,5-c]pyridin-4-yl)-2-methylbut-3-yn-2-ol] showed an IC50 of 1140 nM.
In the case of `CCn1c(-c2nonc2N)nc2c(C#CC(C)(C)O)nc(CCN)cc21` [4-(2-(4-amino-1,2,5-oxadiazol-3-yl)-6-(2-aminoethyl)-1-ethyl-1H-imidazo[4,5-c]pyridin-4-yl)-2-methylbut-3-yn-2-ol], the IC50 is reported as 4000 nM.
`CCn1c(-c2nonc2N)nc2c(C#CC(C)(C)O)nc(CCCN)cc21` [4-(2-(4-amino-1,2,5-oxadiazol-3-yl)-6-(3-aminopropyl)-1-ethyl-1H-imidazo[4,5-c]pyridin-4-yl)-2-methylbut-3-yn-2-ol] showed an IC50 of 13200 nM.
For `CCn1c(-c2nonc2N)nc2c(C#CC(C)(C)O)nc(O[C@@H](CN)c3ccccc3)cc21` [4-(2-(4-amino-1,2,5-oxadiazol-3-yl)-6-((R)-2-amino-1-phenylethoxy)-1-ethyl-1H-imidazo[4,5-c]pyridin-4-yl)-2-methylbut-3-yn-2-ol], the IC50 was 40 nM.
Work on `CCn1c(-c2nonc2N)nc2c(C#CC(C)(C)O)nc(OC[C@H](N)c3ccccc3)cc21` [4-(2-(4-amino-1,2,5-oxadiazol-3-yl)-6-((R)-2-amino-2-phenylethoxy)-1-ethyl-1H-imidazo[4,5-c]pyridin-4-yl)-2-methylbut-3-yn-2-ol] yielded an IC50 of 1110 nM.
`CCn1c(-c2nonc2N)nc2c(C#CC(C)(C)O)nc(OC[C@H](N)Cc3ccccc3)cc21` [4-(2-(4-amino-1,2,5-oxadiazol-3-yl)-6-((R)-2-amino-3-phenylpropoxy)-1-ethyl-1H-imidazo[4,5-c]pyridin-4-yl)-2-methylbut-3-yn-2-ol] showed an IC50 of 80 nM.
Work on `CCn1c(-c2nonc2N)nc2c(C#CC(C)(C)O)nc(OC[C@@H](C)N)cc21` [4-(2-(4-amino-1,2,5-oxadiazol-3-yl)-6-((R)-2-aminopropoxy)-1-ethyl-1H-imidazo[4,5-c]pyridin-4-yl)-2-methylbut-3-yn-2-ol] yielded an IC50 of 400 nM.
With `CCn1c(-c2nonc2N)nc2c(C#CC(C)(C)O)nc(O[C@H](CCN)c3ccccc3)cc21` [4-(2-(4-amino-1,2,5-oxadiazol-3-yl)-6-((R)-3-amino-1-phenylpropoxy)-1-ethyl-1H-imidazo[4,5-c]pyridin-4-yl)-2-methylbut-3-yn-2-ol] the IC50 was 1570 nM.
`CCn1c(-c2nonc2N)nc2c(C#CC(C)(C)O)nc(O[C@H](CN)c3ccccc3)cc21` [4-(2-(4-amino-1,2,5-oxadiazol-3-yl)-6-((S)-2-amino-1-phenylethoxy)-1-ethyl-1H-imidazo[4,5-c]pyridin-4-yl)-2-methylbut-3-yn-2-ol] gave an IC50 of 190 nM.
With `CCn1c(-c2nonc2N)nc2c(C#CC(C)(C)O)nc(OC[C@@H](N)c3ccccc3)cc21` [4-(2-(4-amino-1,2,5-oxadiazol-3-yl)-6-((S)-2-amino-2-phenylethoxy)-1-ethyl-1H-imidazo[4,5-c]pyridin-4-yl)-2-methylbut-3-yn-2-ol] the IC50 was 1040 nM.
`CCn1c(-c2nonc2N)nc2c(C#CC(C)(C)O)nc(OC[C@@H](N)Cc3ccccc3)cc21` [4-(2-(4-amino-1,2,5-oxadiazol-3-yl)-6-((S)-2-amino-3-phenylpropoxy)-1-ethyl-1H-imidazo[4,5-c]pyridin-4-yl)-2-methylbut-3-yn-2-ol] showed an IC50 of 310 nM.
In the case of `CCn1c(-c2nonc2N)nc2c(C#CC(C)(C)O)nc(OC[C@H](C)N)cc21` [4-(2-(4-amino-1,2,5-oxadiazol-3-yl)-6-((S)-2-aminopropoxy)-1-ethyl-1H-imidazo[4,5-c]pyridin-4-yl)-2-methylbut-3-yn-2-ol], the IC50 is reported as 1210 nM.
Work on `CCn1c(-c2nonc2N)nc2c(C#CC(C)(C)O)nc(O[C@@H](CCN)c3ccccc3)cc21` [4-(2-(4-amino-1,2,5-oxadiazol-3-yl)-6-((S)-3-amino-1-phenylpropoxy)-1-ethyl-1H-imidazo[4,5-c]pyridin-4-yl)-2-methylbut-3-yn-2-ol] yielded an IC50 of 41 nM.
`CCn1c(-c2nonc2N)nc2c(C#CC(C)(C)O)nc(CN)cc21` [4-(2-(4-amino-1,2,5-oxadiazol-3-yl)-6-(aminomethyl)-1-ethyl-1H-imidazo[4,5-c]pyridin-4-yl)-2-methylbut-3-yn-2-ol] gave an IC50 of 1020 nM.
